In US20260130395A1, “Water Dispersible Botanical Compositions” (Aquila Black Limited, priority 2021, published 2026):

Tests used:
[1] = Stability of cannabinoid compounds and Vitamin E components in Beverage 2 (AB Red) by LCMSMS; type: physicochemical
[2] = Stability of Nanoemulsion Concentrate 3 (α-tocopherol and Vitamin B12 content) by LCMSMS; type: physicochemical; conditions: for Stability of α-tocopherol in Nanoemulsion Concentrate 3: average of triplicate
Experimental: At each time period (0, 7, 28, 60, 120, 150 and 180 days), triplicate samples were analysed for content of α-tocopherol and Vitamin B12.
(FIGS. 14 and 15, Table 13). Data reported in Table 13 and plotted in FIGS. 14 and 15 are average values of the triplicate measurements taken.

With Cc1c(C)c2c(c(C)c1O)CC[C@@](C)(CCC[C@H](C)CCC[C@H](C)CCCC(C)C)O2 [α-Tocopherol] the “Stability of Vitamin Es in AB Red” value ([1]; stored at 8° C., 0 days) was 25.3 µg/mL, the “Stability of Vitamin Es in AB Red” value ([1]; stored at 8° C., 1 days) was 25.2 µg/mL and the “Stability of Vitamin Es in AB Red” value ([1]; stored at 8° C., 2 days) was 24.9 µg/mL. The “Stability of Vitamin Es in AB Red” value ([1]; stored at 8° C., 3 days) was 25.3 µg/mL, the “Stability of Vitamin Es in AB Red” value ([1]; stored at 8° C., 5 days) was 24.2 µg/mL and the “Stability of Vitamin Es in AB Red” value ([1]; stored at 8° C., 8 days) was 23.7 µg/mL. For the same compound, the “Stability of Vitamin Es in AB Red” value ([1]; stored at 8° C., 9 days) was 24.6 µg/mL, the “Stability of Vitamin Es in AB Red” value ([1]; stored at 8° C., 10 days) was 24.9 µg/mL and the “Stability of Vitamin Es in AB Red” value ([1]; stored at 8° C., 11 days) was 23.9 µg/mL. For the same compound, the “Stability of Vitamin Es in AB Red” value ([1]; stored at 8° C., 12 days) was 24.4 µg/mL, the “Stability of Vitamin Es in AB Red” value ([1]; stored at 8° C., 15 days) was 25.6 µg/mL and the “Stability of Vitamin Es in AB Red” value ([1]; stored at 8° C., 16 days) was 24.5 µg/mL. The “Stability of Vitamin Es in AB Red” value ([1]; stored at 8° C., 17 days) was 23.6 µg/mL, the “Stability of Vitamin Es in AB Red” value ([1]; stored at 8° C., 18 days) was 24.1 µg/mL and the “Stability of Vitamin Es in AB Red” value ([1]; stored at 8° C., 19 days) was 24.0 µg/mL. The “Stability of Vitamin Es in AB Red” value ([1]; stored at 8° C., 22 days) was 25.0 µg/mL, the “Stability of Vitamin Es in AB Red” value ([1]; stored at 8° C., 23 days) was 23.2 µg/mL and the “Stability of Vitamin Es in AB Red” value ([1]; stored at 8° C., 24 days) was 24.3 µg/mL. The “Stability of Vitamin Es in AB Red” value ([1]; stored at 8° C., 25 days) was 23.6 µg/mL, the “Stability of Vitamin Es in AB Red” value ([1]; stored at 8° C., 26 days) was 25.2 µg/mL and the “Stability of Vitamin Es in AB Red” value ([1]; stored at 8° C., 29 days) was 23.5 µg/mL. For the same compound, the “Stability of Vitamin Es in AB Red” value ([1]; stored at 8° C., 30 days) was 24.2 µg/mL, the “Stability of Vitamin Es in AB Red” value ([1]; stored at 8° C., 60 days) was 24.2 µg/mL and the “Stability of Vitamin Es in AB Red” value ([1]; stored at 8° C., 90 days) was 23.1 µg/mL. The “Stability of Vitamin Es in AB Red” value ([1]; stored at 8° C., 120 days) was 25.2 µg/mL, the “Stability of Vitamin Es in AB Red” value ([1]; stored at 8° C., 150 days) was 25.4 µg/mL and the “Stability of Vitamin Es in AB Red” value ([1]; stored at 8° C., 180 days) was 23.6 µg/mL. For the same compound, the “Stability of Vitamin Es in AB Red” value ([1]; stored at 8° C., 210 days) was 23.5 µg/mL, the “Stability of Vitamin Es in AB Red” value ([1]; stored at 8° C., 240 days) was 23.6 µg/mL and the “Stability of Vitamin Es in AB Red” value ([1]; stored at 8° C., 270 days) was 23.6 µg/mL. The “Stability of Vitamin Es in AB Red” value ([1]; stored at 8° C., 300 days) was 23.1 µg/mL, the “Stability of Vitamin Es in AB Red” value ([1]; stored at 8° C., 330 days) was 22.9 µg/mL and the “Stability of Vitamin Es in AB Red” value ([1]; stored at 8° C., 360 days) was 22.4 µg/mL. For the same compound, the “Stability of Vitamin Es in AB Red” value ([1]; stored at 8° C., 390 days) was 23.1 µg/mL, the “Stability of Vitamin Es in AB Red” value ([1]; stored at 8° C., 420 days) was 22.3 µg/mL and the “Stability of Vitamin Es in AB Red” value ([1]; stored at 8° C., 450 days) was 22.7 µg/mL. For the same compound, the “Stability of Vitamin Es in AB Red” value ([1]; stored at 8° C., 480 days) was 21.8 µg/mL, the “Stability of Vitamin Es in AB Red” value ([1]; stored at 8° C., 510 days) was 22.0 µg/mL and the “Stability of Vitamin Es in AB Red” value ([1]; stored at 8° C., 540 days) was 21.8 µg/mL. For the same compound, the “Stability of Vitamin Es in AB Red” value ([1]; stored at 8° C., 570 days) was 21.5 µg/mL, the “Stability of Vitamin Es in AB Red” value ([1]; stored at 21-25° C., 0 days) was 25.3 µg/mL and the “Stability of Vitamin Es in AB Red” value ([1]; stored at 21-25° C., 1 days) was 24.4 µg/mL. For the same compound, the “Stability of Vitamin Es in AB Red” value ([1]; stored at 21-25° C., 2 days) was 24.1 µg/mL, the “Stability of Vitamin Es in AB Red” value ([1]; stored at 21-25° C., 3 days) was 23.8 µg/mL and the “Stability of Vitamin Es in AB Red” value ([1]; stored at 21-25° C., 5 days) was 22.9 µg/mL. The “Stability of Vitamin Es in AB Red” value ([1]; stored at 21-25° C., 8 days) was 24.5 µg/mL, the “Stability of Vitamin Es in AB Red” value ([1]; stored at 21-25° C., 9 days) was 23.3 µg/mL and the “Stability of Vitamin Es in AB Red” value ([1]; stored at 21-25° C., 10 days) was 23.0 µg/mL. The “Stability of Vitamin Es in AB Red” value ([1]; stored at 21-25° C., 11 days) was 24.4 µg/mL, the “Stability of Vitamin Es in AB Red” value ([1]; stored at 21-25° C., 12 days) was 23.4 µg/mL and the “Stability of Vitamin Es in AB Red” value ([1]; stored at 21-25° C., 15 days) was 24.8 µg/mL. The “Stability of Vitamin Es in AB Red” value ([1]; stored at 21-25° C., 16 days) was 25.1 µg/mL, the “Stability of Vitamin Es in AB Red” value ([1]; stored at 21-25° C., 17 days) was 24.4 µg/mL and the “Stability of Vitamin Es in AB Red” value ([1]; stored at 21-25° C., 18 days) was 24.9 µg/mL. For the same compound, the “Stability of Vitamin Es in AB Red” value ([1]; stored at 21-25° C., 19 days) was 25.4 µg/mL, the “Stability of Vitamin Es in AB Red” value ([1]; stored at 21-25° C., 22 days) was 25.4 µg/mL and the “Stability of Vitamin Es in AB Red” value ([1]; stored at 21-25° C., 23 days) was 24.6 µg/mL. The “Stability of Vitamin Es in AB Red” value ([1]; stored at 21-25° C., 24 days) was 23.5 µg/mL, the “Stability of Vitamin Es in AB Red” value ([1]; stored at 21-25° C., 25 days) was 25.5 µg/mL and the “Stability of Vitamin Es in AB Red” value ([1]; stored at 21-25° C., 26 days) was 24.3 µg/mL. For the same compound, the “Stability of Vitamin Es in AB Red” value ([1]; stored at 21-25° C., 29 days) was 24.4 µg/mL, the “Stability of Vitamin Es in AB Red” value ([1]; stored at 21-25° C., 30 days) was 24.6 µg/mL and the “Stability of Vitamin Es in AB Red” value ([1]; stored at 21-25° C., 60 days) was 24.4 µg/mL. For the same compound, the “Stability of Vitamin Es in AB Red” value ([1]; stored at 21-25° C., 90 days) was 24.3 µg/mL, the “Stability of Vitamin Es in AB Red” value ([1]; stored at 21-25° C., 120 days) was 23.7 µg/mL and the “Stability of Vitamin Es in AB Red” value ([1]; stored at 21-25° C., 150 days) was 23.4 µg/mL. For the same compound, the “Stability of Vitamin Es in AB Red” value ([1]; stored at 21-25° C., 180 days) was 23.3 µg/mL, the “Stability of Vitamin Es in AB Red” value ([1]; stored at 21-25° C., 210 days) was 22.7 µg/mL and the “Stability of Vitamin Es in AB Red” value ([1]; stored at 21-25° C., 240 days) was 23.1 µg/mL. For the same compound, the “Stability of Vitamin Es in AB Red” value ([1]; stored at 21-25° C., 270 days) was 23.1 µg/mL, the “Stability of Vitamin Es in AB Red” value ([1]; stored at 21-25° C., 300 days) was 23.5 µg/mL and the “Stability of Vitamin Es in AB Red” value ([1]; stored at 21-25° C., 330 days) was 22.6 µg/mL. For the same compound, the “Stability of Vitamin Es in AB Red” value ([1]; stored at 21-25° C., 360 days) was 21.9 µg/mL, the “Stability of Vitamin Es in AB Red” value ([1]; stored at 21-25° C., 390 days) was 22.7 µg/mL and the “Stability of Vitamin Es in AB Red” value ([1]; stored at 21-25° C., 420 days) was 22.5 µg/mL. For the same compound, the “Stability of Vitamin Es in AB Red” value ([1]; stored at 21-25° C., 450 days) was 22.3 µg/mL, the “Stability of Vitamin Es in AB Red” value ([1]; stored at 21-25° C., 480 days) was 21.6 µg/mL and the “Stability of Vitamin Es in AB Red” value ([1]; stored at 21-25° C., 510 days) was 21.4 µg/mL. The “Stability of Vitamin Es in AB Red” value ([1]; stored at 21-25° C., 540 days) was 21.0 µg/mL, the “Stability of Vitamin Es in AB Red” value ([1]; stored at 21-25° C., 570 days) was 21.4 µg/mL and the “Stability of α-tocopherol in Nanoemulsion Concentrate 3” value (“Stability of α-tocopherol” below) ([2]; Refrigerated (2-4° C.), 0 days) was 0.25 mg/mL. The “Stability of α-tocopherol” value ([2]; Refrigerated (2-4° C.), 7 days) was 0.25 mg/mL, the “Stability of α-tocopherol” value ([2]; Refrigerated (2-4° C.), 28 days) was 0.23 mg/mL and the “Stability of α-tocopherol” value ([2]; Refrigerated (2-4° C.), 60 days) was 0.26 mg/mL. For the same compound, the “Stability of α-tocopherol” value ([2]; Refrigerated (2-4° C.), 120 days) was 0.26 mg/mL, the “Stability of α-tocopherol” value ([2]; Refrigerated (2-4° C.), 150 days) was 0.23 mg/mL and the “Stability of α-tocopherol” value ([2]; Refrigerated (2-4° C.), 180 days) was 0.27 mg/mL. The “Stability of α-tocopherol” value ([2]; Room Temperature (21-25° C.), 0 days) was 0.25 mg/mL, the “Stability of α-tocopherol” value ([2]; Room Temperature (21-25° C.), 7 days) was 0.21 mg/mL and the “Stability of α-tocopherol” value ([2]; Room Temperature (21-25° C.), 28 days) was 0.22 mg/mL. For the same compound, the “Stability of α-tocopherol” value ([2]; Room Temperature (21-25° C.), 60 days) was 0.23 mg/mL, the “Stability of α-tocopherol” value ([2]; Room Temperature (21-25° C.), 120 days) was 0.20 mg/mL and the “Stability of α-tocopherol” value ([2]; Room Temperature (21-25° C.), 150 days) was 0.21 mg/mL. For the same compound, the “Stability of α-tocopherol” value ([2]; Room Temperature (21-25° C.), 180 days) was 0.17 mg/mL, the “stability in Nanoemulsion Concentrate 3 (in words)” value ([2]; after 180 days stored at 21-25° C.) was “some slight degradation” and the “stability in Nanoemulsion Concentrate 3 (in words)” value ([2]; stored at 2-4° C., 180 days) was “high degree of stability”.
